Laboratory results: patent US4491675A, “Hydroformylation process using triarylphosphine and bisphosphine monooxide ligands” (Union Carbide Corporation, priority 1981, dated 1985)

Assays:
[1] = Continuous propylene hydroformylation, long term catalyst stability (Examples 1 to 13, Table I); settings: for thermal catalyst stability: 130° C., in words, relative comparison of ligand systems of Table I; for Aldehyde Product Reaction Rate, day 4, corrected reaction rate (in parenthesis) / Aldehyde Product Reaction Rate, day 4: day 4 at 130° C.; for Aldehyde Product Reaction Rate, day 4, corrected reaction rate (in parenthesis): corrected with mathematical rate model for standard rhodium-triphenylphosphine catalyst; for % Activity Decline: decline in catalyst activity from Day 1 through Day 4 at 130° C.; for Aldehyde Product Reaction Rate, day 1 / Aldehyde Product Reaction Rate, day 4: observed, total gas about 165 psig, Rh 100 or 200 ppm; for Aldehyde Product Reaction Rate, day 1: day 1 at 130° C.
Method: A series of long term catalyst stability experiments were conducted in a glass reactor operating in a continuous propylene hydroformylation mode. The reactor consisted of a three ounce pressure bottle submersed in an oil bath with a glass front for viewing. In each experiment about 20 ml. of a freshly prepared rhodium catalytic precursor solution was charged to the reactor with a syringe after purging the system with nitrogen. Each precursor solution contained from 100 to 200 ppm rhodium calculated as free metal (as noted in Table I below) introduced as rhodium dicarbonyl acetylacetonate, a phosphorus ligand or mixture of phosphorus ligands and a solvent.
After closing the reactor, the system was again purged with nitrogen and the oil bath was heated to furnish the desired hydroformylation reaction temperature. […] The flows of the feed gases (carbon monoxide, hydrogen and propylene) were controlled individually with mass flow meters and the feed gases dispersed into the precursor solution via fritted glass spargers. The unreacted portion of the feed gases stripped out the product aldehydes. […] The product aldehydes for each experiment were analyzed over the first day of continuous operation at 130° C. and over the fourth day of continuous operation at 130° C. and the average reaction rates for each experiment in terms of gram moles per liter per hour of total product aldehydes for the first and fourth days of continuous operation at the average measured partial pressures of hydrogen, carbon monoxide and propylene for said days are given in Table I below.

[2] = Continuous propylene hydroformylation with stepwise CO partial pressure increase, catalyst stability (Examples 14 to 18, Table II); settings: for Aldehyde Product Reaction Rate, day 12, corrected reaction rate (in parenthesis): day 12 at 130° C., corrected with mathematical rate model for standard rhodium-triphenylphosphine catalyst; for % Activity Decline: decline in catalyst activity from Day 6 through Day 12 at 130° C.; for Aldehyde Product Reaction Rate, day 6: observed, day 6 at 130° C., total gas about 165 psig, Rh 200 or 300 ppm
Excerpt: During days 9 to 13 the carbon monoxide partial pressure was increased stepwise from about 10 to 25 psia and returned to about 10 psia for day 14.

Molecule | thermal catalyst stability [1] | Aldehyde Product Reaction Rate, day 4, corrected reaction rate (in parenthesis) [1] | % Activity Decline [1] [%] | Aldehyde Product Reaction Rate, day 1 [1] [g·mol/L/h] | Aldehyde Product Reaction Rate, day 4 [1] [g·mol/L/h] | Aldehyde Product Reaction Rate, day 12, corrected reaction rate (in parenthesis) [2] | % Activity Decline [2] [%] | Aldehyde Product Reaction Rate, day 6 [2] [gmoles/L hr]
c1ccc(P(c2ccccc2)c2ccccc2)cc1 [Example 1, (C6 H5)3 P] | inferior thermal stability | 1.00 g·mol/L/h | 42 | 1.74 | 1.12 | – | – | –
(ClC6 H4)3 P [Example 8] | – | .32 g·mol/L/h | 46 | 0.59 | 0.49 | – | – | –
(CH3 OC6 H4)3 P [Example 5] | – | 1.36 g·mol/L/h | 13 | 1.57 | 1.68 | – | – | –
c1ccc(P(c2ccccc2)c2ccccc2)cc1 [Example 14, (C6 H5)3 P] | – | – | – | – | – | .76 gmoles/L hr | 32 | 1.12
CH3 -C6 H4)3 P [Example 15] | – | – | – | – | – | 1.24 gmoles/L hr | 17 | 1.50
O=P(CCP(c1ccccc1)c1ccccc1)(c1ccccc1)c1ccccc1 [Example 9, (C6 H5)2 P(CH2)2 P(O)(C6 H5)2] | inferior thermal stability | 0.63 g·mol/L/h | 40 | 1.06 | 0.87 | – | – | –
(CH3 O-C6 H4)3 P [Example 16] | – | – | – | – | – | 1.14 gmoles/L hr | 14 | 1.33
(CH3 C6 H4)3 P [Example 3] | – | 1.02 g·mol/L/h | 25 | 1.36 | 1.49 | – | – | –
